According to patent publication US9156815B2, “Salt of (R)-3-(6-amino-pyridin-3-yl)-2-(1-Cyclohexyl-1H-imidazol-4-yl) ethyl propionate” (Sanofi, priority 2011, dated 2015):
Structures can show the parent of a compound that is named as a salt.

Assays:
Assay type in all cases: physicochemical
[1] = Salt screening of the API with acids and solvents, XRPD measurement; design: key: NKP means no crystalline phase; KFA means free acid crystallizes; conditions: API + acid
Description: The molar ratio between the H^+ concentration of the acid and of the API is 2 (for details see table 2). In each cavity of the microtiter plate, 68 microliters of the dissolved API are mixed with 40 microliters of the 0.1 normal acid solutions.
68 microliters of the dissolved API are pipetted into each cavity of a 96 microtiter plate. Then, in each case 40 microliters of the acids dissolved as in table 2 are added according to the scheme as detailed in table 3. The microtiter plate is shaken at room temperature for 20 min so that an equilibrium is formed in the cavities. Evaporation of the solvents at room temperature in a stream of nitrogen for 2 hours. Then, in each case 40 microliters of the solvents according to the scheme as detailed in table 3 are added. The microtiter plate is shaken at room temperature for 20 min so that an equilibrium is formed in the cavities. Evaporation of the solvent then takes place at room temperature in a stream of nitrogen for 2 hours. Finally, XRPD measurement is carried out.

[2] = Physical stability, storage for 14 days (XRPD, thermogravimetry); conditions: stored 14 days under conditions (A) to (D)
Description: Representative samples of the crystalline salt of (R)-3-(6-aminopyridin-3-yl)-2-(1-cyclohexyl-1H-imidazol-4-yl)propionic acid ethyl ester with naphthalene-1,5-disulfonic acid prepared as in example 1 are stored for 14 days under the conditions (A), (B), (C) and (D): • (A) 50° C. • (B) 50° C. and 80% relative atmospheric humidity • (C) 80° C. • (D) 80° C. and 80% relative atmospheric humidity Results:
Only a slight loss in mass during the thermogravimetric measurements (apparatus TA Instruments: TGA Q500, atmospheric nitrogen; rate 10° C./min) is observed, which is attributed to the release of water from the crystals.

[3] = Chiral stability, storage for 14 days (chiral HPLC)
Description: Representative samples of the crystalline salt of (R)-3-(6-aminopyridin-3-yl)-2-(1-cyclohexyl-1H-imidazol-4-yl)propionic acid ethyl ester with naphthalene-1,5-disulfonic acid prepared as in example 1 are stored for 14 days under the conditions (A), (B), (C) and (D) described in example 4:
The measurements were carried out using chromatography on chiral phase as described in example 1.
Chiral HPLC: (Chiralcel OD-H/84 (250×4.6 mm), heptane:Isopropanol:Acetonitrile 15:1:0.5+0.1% diethylamine (DEA), 30° C., 1 ml/min): Rt=27.01 min.

Row | Compound | XRPD result of salt screening ([1]; solvent 2-Methyl-1-propanol) | XRPD result of salt screening ([1]; solvent 2-Propanol) | XRPD result of salt screening ([1]; solvent Butyl acetate) | XRPD result of salt screening ([1]; solvent Ethanol) | XRPD result of salt screening ([1]; solvent Methanol) | XRPD result of salt screening ([1]; solvent Methyl ethyl ketone) | XRPD result of salt screening ([1]; solvent Water) | XRPD result of salt screening ([1]; solvent Water:methanol 1:1) | XRPD measurements at the start and after 14 days [2] | increase of the (S) enantiomer ([3]; 14 days, 50° C. (A)) [%] | increase of the (S) enantiomer ([3]; 14 days, 50° C. and 80% relative atmospheric humidity (B)) [%] | change of enantiomeric purity ([3]; 14 days, 80° C. (C)) | increase of the (S) enantiomer ([3]; 14 days, 80° C. and 80% relative atmospheric humidity (D)) [%] | Enantiomeric purity ([3]; 14 days, storage condition (A) 50° C.) [%] | Enantiomeric purity ([3]; 14 days, storage condition (B) 50° C. and 80% relative atmospheric humidity) [%] | Enantiomeric purity ([3]; 14 days, storage condition (C) 80° C.) [%] | Enantiomeric purity ([3]; 14 days, storage condition (D) 80° C. and 80% relative atmospheric humidity) [%] | Enantiomeric purity ([3]; at the start of the measurement) [%]
1 | Benzoic acid | KFA | KFA | KFA | KFA | KFA | KFA | KFA | NKP |  |  |  |  |  |  |  |  |  | 
2 | Sulfuric acid | NKP | NKP | NKP | NKP | NKP | NKP | NKP | NKP |  |  |  |  |  |  |  |  |  | 
3 | Fumaric acid | NKP | NKP | NKP | NKP | NKP | NKP | NKP | NKP |  |  |  |  |  |  |  |  |  | 
4 | Tartaric acid | NKP | NKP | NKP | NKP | NKP | NKP | NKP | NKP |  |  |  |  |  |  |  |  |  | 
5 | Citric acid | NKP | NKP | NKP | NKP | NKP | NKP | NKP | NKP |  |  |  |  |  |  |  |  |  | 

Continued, values first:

Row | XRPD result of salt screening ([1]; solvent 2-Methyl-1-propanol) | XRPD result of salt screening ([1]; solvent 2-Propanol) | XRPD result of salt screening ([1]; solvent Butyl acetate) | XRPD result of salt screening ([1]; solvent Ethanol) | XRPD result of salt screening ([1]; solvent Methanol) | XRPD result of salt screening ([1]; solvent Methyl ethyl ketone) | XRPD result of salt screening ([1]; solvent Water) | XRPD result of salt screening ([1]; solvent Water:methanol 1:1) | XRPD measurements at the start and after 14 days [2] | increase of the (S) enantiomer ([3]; 14 days, 50° C. (A)) [%] | increase of the (S) enantiomer ([3]; 14 days, 50° C. and 80% relative atmospheric humidity (B)) [%] | change of enantiomeric purity ([3]; 14 days, 80° C. (C)) | increase of the (S) enantiomer ([3]; 14 days, 80° C. and 80% relative atmospheric humidity (D)) [%] | Enantiomeric purity ([3]; 14 days, storage condition (A) 50° C.) [%] | Enantiomeric purity ([3]; 14 days, storage condition (B) 50° C. and 80% relative atmospheric humidity) [%] | Enantiomeric purity ([3]; 14 days, storage condition (C) 80° C.) [%] | Enantiomeric purity ([3]; 14 days, storage condition (D) 80° C. and 80% relative atmospheric humidity) [%] | Enantiomeric purity ([3]; at the start of the measurement) [%] | Compound
6 | KFA | KFA | KFA | KFA | KFA | KFA | KFA | NKP |  |  |  |  |  |  |  |  |  |  | Adipic acid
7 | NKP | NKP | NKP | NKP | NKP | NKP | NKP | NKP |  |  |  |  |  |  |  |  |  |  | Glucuronic acid
8 |  |  |  |  |  |  |  |  | close together | 0.2 | 0.2 | no change | 2.7 | 98.8 | 98.8 | 99.0 | 96.3 | 99.0 | CCOC(=O)[C@H](Cc1ccc(N)nc1)c1cn(C2CCCCC2)cn1 [Example 1, crystalline salt of (R)-3-(6-aminopyridin-3-yl)-2-(1-cyclohexyl-1H-imidazol-4-yl)propionic acid ethyl ester with naphthalene-1,5-disulfonic acid]
9 | NKP | NKP | NKP | NKP | NKP | NKP | NKP | NKP |  |  |  |  |  |  |  |  |  |  | Malonic acid
